Source: patent US8334371B2, “Lactic acid bacteria-derived double-stranded RNA” (Kikkoman Corporation, priority 2007, dated 2012)

B1: DSR2: synthetic double-stranded RNA, 119 mer, SEQ ID NO. 6, made by in vitro transcription and annealing (nucleic acid, listed as Tetragenococcus halophilus)
chain: AAAAAATTACCTTTTTCTATTCGTGAGAAAATTTCTCAAGCCGACAAGTATCATAAAAAATTTGCTTTTGAACACTTTTTGAAGGTGTTTCTCTATGGCATCGATCATGAGTGTGAAAG
modifications: RNA, all phosphodiester, T or U not given here; further chemistry not fully specified
notes: 6, made by in vitro transcription and annealing

Test system: bone marrow-derived dendritic cells
Assay: Promotion of interferon β production from bone marrow-derived dendritic cells (PBL interferon β assay kit)
Type: cell-based, mouse
Method: In addition, measurement was also carried out on interferon β, which has been reported to be involved in the production of interleukin 12. Activity promoting production of interferon β from bone marrow-derived dendritic cells (after culturing for 6 hours using an interferon β assay kit (PBL)) was as shown in FIG. 8.
At this time, interferon […], which has been reported to be involved in interleukin 12 production, was also measured.
(§1) Bone marrow-derived dendritic cells were prepared in the same manner as Example 2. Synthetic RNA was added to the bone marrow-derived dendritic cells followed by co-culturing for 6 hours in a 5% CO2 incubator at 37° C. Interferon β production promoting activity was measured using an interferon β assay kit manufactured by PBL.
as §1, with “for 24” for “for 6”, “using the” for “using an”

Row | Molecule | interferon β production promoting activity (culturing for 6 hours, concentration response) | interferon β production promoting activity (dendritic cells from TLR3-knockout mice vs wild type, 6 hours) | interferon β production from bone marrow-derived dendritic cells (co-culturing for 24 hours)
1 | DSR1: synthetic double-stranded RNA, 46 mer, SEQ ID NO. 5, sequence cloned from Th221 double-stranded RNA fraction (AAATTTTCAAAAACCTGTTTTGCTTCTTCTAAAAATCCAATTGAAA; listed as DNA, chemistry not given here; listed as Tetragenococcus halophilus) | increased dependent on the concentration | decreased | –
2 | B1 | – | – | indicated to be produced
